According to PubChem BioAssay (NCI):
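Growth conditions: 96-well plates. Treatment: test compound, 48 hours, 5 concentrations. Analysis: linear interpolation between bracketing concentrations; unreached endpoints set to highest concentration. TGI is the concentration that stops growth completely.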

What was measured:
Assay in all cases: NCI-60 cell line screen, 48 h
786-0 renal = test system: 786-0 renal
A549 NSCLC = test system: A549 NSCLC
ACHN renal = test system: ACHN renal
BT-549 breast = test system: BT-549 breast
CCRF-CEM leukemia = test system: CCRF-CEM leukemia
DU-145 prostate = test system: DU-145 prostate
EKVX NSCLC = test system: EKVX NSCLC
HCT-116 colon = test system: HCT-116 colon
HCT-15 colon = test system: HCT-15 colon
HL-60(TB) leukemia = test system: HL-60(TB) leukemia
HOP-92 NSCLC = test system: HOP-92 NSCLC
HS 578T breast = test system: HS 578T breast
HT29 colon = test system: HT29 colon
K-562 leukemia = test system: K-562 leukemia
KM12 colon = test system: KM12 colon
LOX IMVI melanoma = test system: LOX IMVI melanoma
M14 melanoma = test system: M14 melanoma
MALME-3M melanoma = test system: MALME-3M melanoma
MCF7 breast = test system: MCF7 breast
MDA-MB-231 breast = test system: MDA-MB-231 breast
MDA-MB-435 = test system: MDA-MB-435
MDA-N = test system: MDA-N
MOLT-4 leukemia = test system: MOLT-4 leukemia
NCI-H226 lung = test system: NCI-H226 lung
NCI-H23 lung = test system: NCI-H23 lung
NCI-H460 lung = test system: NCI-H460 lung
NCI-H522 lung = test system: NCI-H522 lung
NCI/ADR-RES ovarian = test system: NCI/ADR-RES ovarian
OVCAR-3 ovarian = test system: OVCAR-3 ovarian
OVCAR-4 ovarian = test system: OVCAR-4 ovarian
OVCAR-5 ovarian = test system: OVCAR-5 ovarian
OVCAR-8 ovarian = test system: OVCAR-8 ovarian
PC-3 prostate = test system: PC-3 prostate
SF-268 CNS = test system: SF-268 CNS
SF-295 CNS = test system: SF-295 CNS
SF-539 CNS = test system: SF-539 CNS
SK-MEL-2 melanoma = test system: SK-MEL-2 melanoma
SK-OV-3 ovarian = test system: SK-OV-3 ovarian
SN12C renal = test system: SN12C renal
SNB-19 CNS = test system: SNB-19 CNS
SNB-75 CNS = test system: SNB-75 CNS
SR leukemia = test system: SR leukemia
SW-620 colon = test system: SW-620 colon
T-47D breast = test system: T-47D breast
TK-10 renal = test system: TK-10 renal
U251 CNS = test system: U251 CNS
UACC-257 melanoma = test system: UACC-257 melanoma
UACC-62 melanoma = test system: UACC-62 melanoma
UO-31 renal = test system: UO-31 renal
A498 renal = test system: A498 renal
COLO 205 colon = test system: COLO 205 colon
HCC-2998 colon = test system: HCC-2998 colon
HOP-62 NSCLC = test system: HOP-62 NSCLC
IGROV1 ovarian = test system: IGROV1 ovarian
RPMI-8226 leukemia = test system: RPMI-8226 leukemia
RXF 393 renal = test system: RXF 393 renal
SK-MEL-28 melanoma = test system: SK-MEL-28 melanoma
SK-MEL-5 melanoma = test system: SK-MEL-5 melanoma

Q: How did the TGI (786-0 renal) turn out when `O=C1CCC2(c3ccccc3)Nc3ccncc3N12` (stereo not drawn) was run?
A: The TGI was greater than 10 µM.

Q: And the TGI (A549 NSCLC)?
A: The TGI was greater than 10 µM.

Q: And the TGI (ACHN renal)?
A: The TGI was greater than 10 µM.

Q: And the TGI (BT-549 breast)?
A: Its TGI is greater than 10 µM.

Q: What about the TGI (CCRF-CEM leukemia) of the same molecule?
A: Its TGI is greater than 10 µM.

Q: And the TGI (DU-145 prostate)?
A: Its TGI is greater than 10 µM.

Q: What about the TGI (EKVX NSCLC) of the same molecule?
A: Its TGI is greater than 10 µM.

Q: What about the TGI (HCT-116 colon) of the same molecule?
A: Its TGI is greater than 10 µM.

Q: And the TGI (HCT-15 colon)?
A: Its TGI is greater than 10 µM.

Q: What about the TGI (HL-60(TB) leukemia) of the same molecule?
A: The TGI was greater than 10 µM.

Q: And the TGI (HOP-92 NSCLC)?
A: The TGI was greater than 10 µM.

Q: What about the TGI (HS 578T breast) of the same molecule?
A: Its TGI is greater than 10 µM.

Q: What about the TGI (HT29 colon) of the same molecule?
A: The TGI was greater than 10 µM.

Q: And the TGI (K-562 leukemia)?
A: The TGI was greater than 10 µM.

Q: What about the TGI (KM12 colon) of the same molecule?
A: The TGI was greater than 10 µM.

Q: And the TGI (LOX IMVI melanoma)?
A: Its TGI is greater than 10 µM.

Q: What about the TGI (M14 melanoma) of the same molecule?
A: The TGI was greater than 10 µM.

Q: And the TGI (MALME-3M melanoma)?
A: Its TGI is greater than 10 µM.

Q: What about the TGI (MCF7 breast) of the same molecule?
A: The TGI was greater than 10 µM.

Q: What about the TGI (MDA-MB-231 breast) of the same molecule?
A: Its TGI is greater than 10 µM.

Q: And the TGI (MDA-MB-435)?
A: Its TGI is greater than 10 µM.

Q: And the TGI (MDA-N)?
A: The TGI was greater than 10 µM.

Q: What about the TGI (MOLT-4 leukemia) of the same molecule?
A: Its TGI is greater than 10 µM.

Q: And the TGI (NCI-H226 lung)?
A: Its TGI is greater than 10 µM.

Q: What about the TGI (NCI-H23 lung) of the same molecule?
A: Its TGI is greater than 10 µM.

Q: What about the TGI (NCI-H460 lung) of the same molecule?
A: The TGI was greater than 10 µM.

Q: And the TGI (NCI-H522 lung)?
A: Its TGI is greater than 10 µM.

Q: And the TGI (NCI/ADR-RES ovarian)?
A: The TGI was greater than 10 µM.

Q: What about the TGI (OVCAR-3 ovarian) of the same molecule?
A: Its TGI is greater than 10 µM.

Q: What about the TGI (OVCAR-4 ovarian) of the same molecule?
A: Its TGI is greater than 10 µM.

Q: What about the TGI (OVCAR-5 ovarian) of the same molecule?
A: Its TGI is greater than 10 µM.

Q: And the TGI (OVCAR-8 ovarian)?
A: The TGI was greater than 10 µM.

Q: What about the TGI (PC-3 prostate) of the same molecule?
A: Its TGI is greater than 10 µM.

Q: What about the TGI (SF-268 CNS) of the same molecule?
A: The TGI was greater than 10 µM.

Q: What about the TGI (SF-295 CNS) of the same molecule?
A: Its TGI is greater than 10 µM.

Q: What about the TGI (SF-539 CNS) of the same molecule?
A: Its TGI is greater than 10 µM.

Q: And the TGI (SK-MEL-2 melanoma)?
A: Its TGI is greater than 10 µM.

Q: What about the TGI (SK-OV-3 ovarian) of the same molecule?
A: The TGI was greater than 10 µM.

Q: What about the TGI (SN12C renal) of the same molecule?
A: The TGI was greater than 10 µM.

Q: And the TGI (SNB-19 CNS)?
A: The TGI was greater than 10 µM.

Q: What about the TGI (SNB-75 CNS) of the same molecule?
A: Its TGI is greater than 10 µM.

Q: What about the TGI (SR leukemia) of the same molecule?
A: Its TGI is greater than 10 µM.

Q: And the TGI (SW-620 colon)?
A: Its TGI is greater than 10 µM.

Q: And the TGI (T-47D breast)?
A: The TGI was greater than 10 µM.

Q: What about the TGI (TK-10 renal) of the same molecule?
A: The TGI was greater than 10 µM.

Q: What about the TGI (U251 CNS) of the same molecule?
A: Its TGI is greater than 10 µM.

Q: And the TGI (UACC-257 melanoma)?
A: Its TGI is greater than 10 µM.

Q: What about the TGI (UACC-62 melanoma) of the same molecule?
A: The TGI was greater than 10 µM.

Q: And the TGI (UO-31 renal)?
A: The TGI was greater than 10 µM.

Q: Which results are given for `COc1ccc(C(=O)c2sc(N(C)C)nc2-c2ccccc2)cc1`?
A: TGI (786-0 renal): > 100 µM; TGI (A498 renal): 93.1 µM; TGI (A549 NSCLC): > 100 µM; TGI (ACHN renal): > 100 µM; TGI (BT-549 breast): 75.6 µM; TGI (CCRF-CEM leukemia): 65.2 µM; TGI (COLO 205 colon): > 100 µM; TGI (DU-145 prostate): > 100 µM; TGI (HCC-2998 colon): 48.5 µM; TGI (HCT-116 colon): > 100 µM; TGI (HCT-15 colon): > 100 µM; TGI (HL-60(TB) leukemia): 40.9 µM; TGI (HOP-62 NSCLC): > 100 µM; TGI (HOP-92 NSCLC): > 100 µM; TGI (HS 578T breast): > 100 µM; TGI (HT29 colon): > 100 µM; TGI (IGROV1 ovarian): > 100 µM; TGI (K-562 leukemia): > 100 µM; TGI (KM12 colon): 73 µM; TGI (LOX IMVI melanoma): > 100 µM; TGI (M14 melanoma): > 100 µM; TGI (MALME-3M melanoma): > 100 µM; TGI (MCF7 breast): > 100 µM; TGI (MDA-MB-231 breast): > 100 µM; TGI (MDA-MB-435): 52 µM; TGI (MDA-N): 53.8 µM; TGI (MOLT-4 leukemia): > 100 µM; TGI (NCI-H226 lung): > 100 µM; TGI (NCI-H23 lung): > 100 µM; TGI (NCI-H460 lung): 52.9 µM; TGI (NCI/ADR-RES ovarian): 49.8 µM; TGI (OVCAR-3 ovarian): 48.6 µM; TGI (OVCAR-4 ovarian): > 100 µM; TGI (OVCAR-5 ovarian): > 100 µM; TGI (PC-3 prostate): > 100 µM; TGI (RPMI-8226 leukemia): > 100 µM; TGI (RXF 393 renal): > 100 µM; TGI (SF-268 CNS): > 100 µM; TGI (SF-539 CNS): > 100 µM; TGI (SK-MEL-2 melanoma): 76.5 µM; TGI (SK-MEL-28 melanoma): > 100 µM; TGI (SK-MEL-5 melanoma): > 100 µM; TGI (SK-OV-3 ovarian): 71.8 µM; TGI (SN12C renal): > 100 µM; TGI (SNB-19 CNS): > 100 µM; TGI (SNB-75 CNS): 80.1 µM; TGI (SR leukemia): > 100 µM; TGI (SW-620 colon): > 100 µM; TGI (T-47D breast): > 100 µM; TGI (TK-10 renal): > 100 µM; TGI (U251 CNS): > 100 µM; TGI (UACC-257 melanoma): 86.1 µM; TGI (UACC-62 melanoma): > 100 µM; TGI (UO-31 renal): > 100 µM
